The text below walks through data of patent publication US20020058843A1, “Novel group IV metal precursors and a method of chemical vapor deposition using the same” (priority 2000, published 2002).

Common to all, as to assay type: physicochemical
Series [1] in a line: Vaporization temperature from endothermic peaks of TG-DSC curves. To be noted: for Vaporization temp.: endothermic peak of TG-DSC curve. As to the method: (§1) The physical properties set forth in Tables 1 and 2 were measured by the following method: the melting point and vaporization temperature were measured from endothermic peaks of TG-DSC curves. However, the values indicated by the symbol * in Table 1 were measured by a melting point-measuring device, because the heat absorption by vaporization occurred along with the melting of the precursors during the measurement. The residue amounts were measured by thermal gravimetric analysis (TGA) under atmospheric pressure (N2, 20 ml/min) and recorded as residual weight of the precursors at 550° C.
(§2) TG-DSC analysis for the precursor Ti(eip)2 according to Example 11 and the precursor Ti(2meip)2 according to Example 12 was carried out under atmospheric pressure in nitrogen gas or in air, and under a reduced pressure (1.3 mbar) using Netzsch STA 449C equipment. In this analysis, the precursors were heated to 550° C. at a scanning rate of 10° C./min in nitrogen gas of a flow rate of 20 ml/min, or in air of a flow rate of 30 ml/min.
(§3) (see, FIG. 1b). […] This difference is due to that Ti(2meip)2 has a relatively weak Ti-N bond compared with a Ti-O bond and has a homoleptic structure.

A short description of series [2]: Residue amount by thermal gravimetric analysis (TGA). To be noted: for Residue amount: TGA, atmospheric pressure, N2 20 ml/min, residual weight at 550° C.; for Residues after being vaporized: in words. As to the method:
as §1

Series [3] is described as follows: TG-DSC analysis in air (thermal decomposition). To be noted: for Thermal decomposition behaviour (exothermic peak): in words. The method, then: as §2, §3
Background: DSC measures the heat that a sample takes up or gives off during a temperature scan.

The nature of series [4]: Solubility of precursor in organic solvents. Conditions: for Solubility in methanol: 0.5 g in 5 ml of methanol; for Solubility in n-butyl acetate: 0.5 g in 5 ml of n-butyl acetate. The method, then: To evaluate solubility of precursors required in introducing the precursors in liquid phase for the deposition of thin films, the precursor Ti(eip)2 prepared in Example 11 and the precursor Ti(2meip)2 prepared in Example 12 were dissolved in methanol and n-butyl acetate, respectively. […] In contrast, 0.5 g of the precursor Ti(2meip)2 containing asymmetric carbons on its ligand was soluble in both methanol and n-butyl acetate.

Series [5] is described as follows: Vaporization rates according to temperature by thermogravimetric analysis (FIG. 4). To be noted: vs Ti(mpd)(thd)2, Ti(thd)2(O-iPr)2, Ba(methd)2, Sr(methd)2. The source says:
Moreover, vaporization rates of the precursor Ti(2meip)2 was compared to that of the commercial precursors Ti(mpd)(thd)2, Ti(thd)2 (O-iPr)2, Ba(methd)2 and Sr(methd)2 The results are shown in FIG. 4.

Series [6] is described as follows: Moisture proof of precursor (left to stand in air, NMR analysis). To be noted: left to stand in air for three months or more. The method, then: 1.0 g of the precursor Ti(eip)2 prepared in Example 11 and 1.0 9 of the precursor Ti(2meip)2 prepared in Example 12 were placed in vials, respectively, and left to stand in air for three months or more. The analysis by NMR of the precursors was then carried out.

“Also recorded” adds a separate entry of the source.

In series [1] (Table 2, prior art precursors), “Barium bis[1-methoxyethoxy-2,2,6,6-tetramethyl-3,5-heptanedionate] [Ba(methd)2, reference compound]” had a Vaporization temp. of 391 °C. Besides, the Residue amount in series [2] (Table 2, prior art precursors) stood at 8.3%.

As for “Strontium bis[1-methoxyethoxy-2,2,6,6-tetramethyl-3,5-heptanedionate] [Sr(methd)2, reference compound]”, in series [1] (Table 2, prior art precursors), the Vaporization temp. was 389 °C. Also, in series [2] (Table 2, prior art precursors), the Residue amount turned out to be 3.1%.

For “Titanium [2-methyl-2,4-dioxy-pentane]-bis[(2,2,6,6-tetramethyl-3,5-heptanedionate)] [Ti(mpd)(thd)2, reference compound]”, in series [3], the “Thermal decomposition behaviour (exothermic peak)” value was “weak exothermic peak over a wide range of temperature”. The Vaporization temp. in series [1] (Table 2, prior art precursors) was 248 °C. The Residue amount in series [2] (Table 2, prior art precursors) was less than 0.5%.

For the substance “Titanium bis(iso-propoxide)bis[(2,2,6,6-tetramethyl-3,5-heptanedionate)] [Ti(OiPr)2(thd)2, reference compound]”, in series [3], the “Thermal decomposition behaviour (exothermic peak)” value was “weak exothermic peak over a wide range of temperature”. Moreover, the Vaporization temp. in series [1] (Table 2, prior art precursors) is 240 °C. Besides, the Residue amount in series [2] (Table 2, prior art precursors) is 7%.

Regarding “Titanium bis[2,2-dimethyl-5-(2-methylethoxy)imino-3-heptanoate] [Ti(22dm2meih)2]”, the Vaporization temp. in series [1] (Table 1) is 287 °C. Besides, in series [1] (atmospheric pressure / nitrogen atmosphere, without thermal decomposition), the “Temperature at which the precursor is vaporized” value came to 287 °C. In series [2] (Table 1), this substance showed a Residue amount of 0.5%. For the same substance, the “Residues after being vaporized” value in series [2] is “no residues”. The “Enhanced solubility over the precursor Ti(2meip)2” value in series [4] (relative to Ti(2meip)2) worked out at 20%.

For the substance “Titanium bis[2,2-dimethyl-5-(ethoxy)imino-3-heptanoate] [Ti(22dmeih)2]”, the Vaporization temp. in series [1] (Table 1) is 307 °C. Besides, the Residue amount in series [2] (Table 1) was found to be 10.6%.

Regarding “Titanium bis[2,6-dimethyl-5-(1-methylethoxy)imino-3-heptanoate] [Ti(26dm1meih)2]”, the Vaporization temp. in series [1] (Table 1) is 285 °C. The Residue amount in series [2] (Table 1) turned out to be 3.6%.

The substance “Titanium bis[2,6-dimethyl-5-(2-methylethoxy)imino-3-heptanoate] [Ti(26dm2meih)2]” displayed a Vaporization temp. in series [1] (Table 1) of 283 °C. In series [2] (Table 1), this substance returned a Residue amount of 8.3%.

Substance “Titanium bis[4-(1,1-dimethylethoxy)imino-2-pentanoate] [Ti(1deip)2]” showed a Vaporization temp. in series [1] (Table 1) of 290 °C. The substance also registered a Residue amount in series [2] (Table 1) of 13.7%.

“Titanium bis[4-(1-ethylethoxy)imino-2-pentanoate] [Ti(1eeip)2]”: in series [1] (Table 1), the Vaporization temp. was 303 °C. In series [2] (Table 1), this substance had a Residue amount of 7.6%.

The substance “Titanium bis[4-(1-methylethoxy)imino-2-pentanoate] [Ti(1meip)2]” gave a Vaporization temp. in series [1] (Table 1) of 295 °C. This substance gave a Residue amount in series [2] (Table 1) of 3.3%.

As to “Titanium bis[4-(2-methylethoxy)imino-2-pentanoate] [Ti(2meip)2]”, the “Thermal decomposition, exothermic peak temperature” value in series [3] (TG-DSC in air, 30 ml/min, 10° C./min) is “about 315 °C”. Moreover, the “Vapor pressure at the respective temperatures compared to the commercial precursors” value in series [5] is on record as “low in their vapor pressure”. The Vaporization temp. in series [1] (Table 1) was 290 °C. In addition, the “Stability on standing in air (NMR)” value in series [6] was “no peaks of non-coordinated ligands; also recorded: not structurally changed”. In series [2] (Table 1), this substance gave a Residue amount of less than 0.5%. Also, in series [2], the “Residues after being vaporized” value was “no residues”. Besides, in series [4], the Solubility in methanol entry is “soluble” and the “Solubility in n-butyl acetate” value is listed as “soluble”.

Regarding “Titanium bis[4-(ethoxy)imino-2-pentanoate] [Ti(eip)2]”, the Vaporization temp. in series [1] (Table 1) stood at 323 °C. In series [6], the “Stability on standing in air (NMR)” value is listed as “no peaks of non-coordinated ligands”. Besides, the Residue after evaporation result in series [2] was “about 8%”. For the same substance, in series [2] (Table 1), the Residue amount is reported as 8.0%. In series [4], the Solubility in methanol result was “soluble” and the “Solubility in n-butyl acetate” value is listed as “insoluble”.

In series [2] (Table 1), “Titanium bis[4-(n-propoxy)imino-2-pentanoate] [Ti(pip)2]” showed a Residue amount of 26.6%.
